Measured values published in ChEMBL document CHEMBL1144015, “Antiproliferative effects on human tumor cells and rat aortic smooth muscular cells of 2,3-heteroarylmaleimides and heterofused imides” (Bioorg Med Chem, 2008).
The source made the active and inactive calls. No cut-off for these calls is given here.

How the values were obtained:
[1] = Partition coefficient, log P of the compound; type: physicochemical; details: octanol/water
[2] = Effect on cell proliferation of Sprague-Dawley rat smooth muscle cells after 72 hrs
NCI-H460 = assay: Antiproliferative activity against human NCI-H460 cells after 72 hrs; type: functional, cell-based; details: NCI-H460, 72 h
[3] = Binding affinity to supercoiled pRYG DNA by DNA intercalating assay

logP [1]	IC50 (NCI-H460) [µM]	Activity [3]	Structure (SMILES)	IC50 [2] [µM]
2.9	8.5		CCN(CC)CCN1C(=O)C(c2c[nH]c3ccccc23)=C(c2cccn2C)C1=O	3.6
4.1	0.9		CCN(CC)CCN1C(=O)c2c(c3ccccc3c3ccccc23)C1=O	0.68
2.1	8.7		CCN(CC)CCN1C(=O)C(c2ccco2)=C(c2cccs2)C1=O	2.1
2.5	0.84	inactive	CCN(CC)CCN1C(=O)c2c(c3c(ccn3C)c3ccsc23)C1=O	0.08
0.9	> 30		CCN(CC)CCN1C(=O)C(c2ccco2)=C(c2cccn2C)C1=O	

Further lines, the compound ahead of its results:

Structure (SMILES)	logP [1]	IC50 (NCI-H460) [µM]	Activity [3]	IC50 [2] [µM]
CCN(CC)CCN1C(=O)c2c(c3sccc3c3ccoc23)C1=O	3	> 30		> 30
CCN(CC)CCN1C(=O)C(c2cccs2)=C(c2cccn2C)C1=O	1.7	9	inactive	12.1
O=C1c2cccc3cccc(c23)C(=O)N1CCNCCCNCCN1C(=O)c2cccc3cccc(c23)C1=O			Active	
CCN(CC)CCN1C(=O)c2c(c3sccc3c3ccsc23)C1=O	3.8	4.8	inactive	0.53
CCN(CC)CCN1C(=O)C(c2cccs2)=C(c2cccs2)C1=O	2.9	8.9	inactive	3.9
CCN(CC)CCN1C(=O)c2c(c3sccc3c3ccccc23)C1=O	3.9	7.1		13.9
CN(C)CCN1C(=O)c2cccc3cc(N)cc(c23)C1=O [AMONAFIDE]	1.6	7.8		0.48
CCN(CC)CCN1C(=O)c2c(c3c(ccn3C)c3ccoc23)C1=O	1.7	8.6		5.3
CCN(CC)CCN1C(=O)C(c2cccs2)=C(c2c[nH]c3ccccc23)C1=O	3.8	1.9		1
CCN(CC)CCN1C(=O)C(c2cc3ccccc3[nH]2)=C(c2cccs2)C1=O	3.8	8.4		5.3
